Experimental data reported in patent publication US20170348337A1, “MULTIFUNCTIONAL MEMBRANE-ACTIVE AMINOGLYCOSIDE-PEPTIDE CONJUGATES” (priority 2014, published 2017).

System: P. acnes in comedone extracts
Test: microcomedone assay (human comedone extracts)
Format: cell-based, Propionibacterium acnes
Details: similar drug concentrations (FIG. 11C)

Question: With `NC[C@H]1O[C@H](O[C@H]2[C@H](O)[C@@H](O[C@H]3O[C@H](CO)[C@@H](O)[C@H](N)[C@H]3O)[C@H](N)C[C@@H]2N)[C@H](N)C[C@@H]1O` [tobramycin] as the molecule, how does the “reduction in CFU” value read?
Answer: less than ten
